Measured values published in PubChem BioAssay (NCI).
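1) Cells in 96-well plates. 2) Compound, 48 h, 5 concentrations. 3) Linear interpolation between surrounding doses. 4) Unreached endpoint = highest concentration. TGI is the concentration that stops growth completely.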

Legend:
Experiment in all cases: growth of human tumour cells (NCI), 48 h
[1] = tested on: COLO 205 colon
[2] = tested on: EKVX NSCLC
[3] = tested on: HOP-62 NSCLC
[4] = tested on: HOP-92 NSCLC
[5] = tested on: K-562 leukemia
[6] = tested on: OVCAR-4 ovarian
[7] = tested on: OVCAR-8 ovarian
[8] = tested on: RPMI-8226 leukemia
[9] = tested on: SF-295 CNS
[10] = tested on: SK-MEL-5 melanoma
[11] = tested on: TK-10 renal
[12] = tested on: DU-145 prostate
[13] = tested on: HCC-2998 colon
[14] = tested on: PC-3 prostate

Structure (SMILES) | TGI [1] [µM] | TGI [2] [µM] | TGI [3] [µM] | TGI [4] [µM] | TGI [5] [µM] | TGI [6] [µM] | TGI [7] [µM] | TGI [8] [µM] | TGI [9] [µM] | TGI [10] [µM] | TGI [11] [µM] | TGI [12] [µM] | TGI [13] [µM] | TGI [14] [µM]
O=c1[nH]cc(COCC(O)CO)c(=O)[nH]1 (stereo not drawn) | > 100 | > 100 | > 100 | > 100 | > 100 | > 100 | > 100 | > 100 | > 100 | > 100 | > 100 |  |  | 
CN(C(=O)c1cc2c(s1)sc1c(=O)n(C)c3ccccc3c12)c1ccccc1 | > 100 | > 100 |  | > 100 | > 100 | > 100 | > 100 |  | > 100 | > 100 | > 100 | > 100 | > 100 | > 100
CNc1cccc2c1C(C)C[C@]1(C)C(=O)Nc3ccccc3[C@H]21 (stereo partly drawn) | > 100 | > 100 | 36.4 |  | > 100 | 35.9 | 39.1 | > 100 | 34.2 | > 100 | 37.2 | > 100 | > 100 | 74.5
O=C1OC(C2Cc3ccc4c(c3C2=O)CCCC4)c2ccccc21 (stereo not drawn) | > 100 | > 100 | > 100 |  | > 100 | > 100 | > 100 | > 100 | > 100 | 84.7 | > 100 | > 100 | 94.6 | > 100
COC(=O)C1Cc2c([nH]c3ccccc23)-c2[nH]c3ccccc3c2CC(NC(C)=O)C(=O)NCC(=O)NCC(=O)N1 (stereo not drawn) | > 100 | > 100 | > 100 | > 100 | > 100 |  | > 100 | > 100 | > 100 | > 100 | > 100 | > 100 |  | > 100
COC(=O)/C=C1/OC(c2ccc(C)cc2C)=CC1=O | 30.2 | > 100 | 61.2 | 45.6 | 10.8 |  | 37.4 | > 100 |  | 38.2 | 31.3 | 30 | 30.5 | 34.9
COC1=CC(=O)c2c(n[nH]c2CCNC(=O)OCc2ccccc2)C1=O | 33.9 | 32 | 37.2 |  | 44.9 |  | 44.3 | 39.1 | 34.9 | 13 | 70.6 |  | 39.6 | > 100
CN(C)CCN=C1Nc2ccccc2C(=O)N2CSCC12 (stereo not drawn) | > 100 | > 100 | > 100 |  | > 100 | > 100 | > 100 | > 100 | > 100 | > 100 | > 100 | > 100 | > 100 | > 100
COc1ccc(OC2OC(CO)C(O)C(O)C2O)cc1 (stereo not drawn) | > 100 | > 100 | > 100 |  | > 100 |  | > 100 | > 100 | > 100 | > 100 | > 100 | > 100 | > 100 | > 100
COc1cccc(N2C(=O)C3c4[nH]c5ccc(C)cc5c4C4CCC(C)CC4C3C2=O)c1 (stereo not drawn) | > 100 | > 100 | 42.6 | > 100 | > 100 |  | > 100 | > 100 | > 100 | > 100 | > 100 | > 100 | > 100 | > 100
COc1ccc(-c2cc(=O)c3ccc(F)cc3[nH]2)cc1 | > 100 | > 100 | > 100 | > 100 | > 100 | > 100 | > 100 | > 100 | > 100 | > 100 | > 100 |  | > 100 | 
C=CCN(N=O)C(=O)N(CCCCC(NC(C)=O)C(=O)NCc1ccccc1)Cc1ccccc1 (stereo not drawn) | 51.7 | > 100 | > 100 | 57.3 | > 100 | > 100 | > 100 | 41.9 | > 100 | 30 | > 100 |  |  | 
CC1(C)CC2C(/C1=N/O)C1(C)CCCC2(C)C1O (stereo not drawn) | > 100 | > 100 | > 100 | > 100 | > 100 | > 100 | > 100 | > 100 | > 100 | > 100 | > 100 | > 100 |  | > 100
O=C1COc2cc3c(cc2N1)SCCC(=O)N3 | > 100 | > 100 | > 100 | > 100 | > 100 | > 100 | > 100 | > 100 | > 100 | > 100 | > 100 |  | > 100 | 
Oc1ccccc1-c1n[nH]c(-c2ccccc2O)n1 | > 85.8 | > 34 | > 100 |  | > 100 | > 100 | > 100 | > 31.1 | > 100 | > 100 | > 100 | > 100 | > 96.7 | 4.72
CC1CN=C(NS(=O)(=O)c2cc(C(=O)Nc3ccccc3)c(Cl)cc2S)NN1 (stereo not drawn) | > 100 | > 100 | > 100 |  | > 100 | > 100 | > 100 | > 100 | > 100 | > 100 | > 100 | > 100 | > 100 | > 100
O=C(Nc1ccccc1[N+](=O)[O-])C(=O)C(C(=O)c1ccccc1-c1ccccc1)C1OC(=O)c2ccccc21 (stereo not drawn) | 32.6 | 51 | 36 |  | 60.6 | > 100 | 44.1 | 78.3 | 39.3 | 32.7 | 47.1 |  | 28.2 | 
O=C(NN1C(=O)C(Cl)C1c1cccc(Cl)c1)c1ccccc1O (stereo not drawn) |  |  |  |  | > 100 | > 100 | > 100 |  | > 100 | > 100 | > 100 |  |  | 
